Where two headings read alike, the source gives them in different places.
What was measured:
canine heart = conditions: for AH time / Heart rate / Mean arterial pressure: mean ± SE
Description: Fourteen adult mongrel dogs of either sex weighing between 19 and 25 kg were prepared for chronic electrophysiologic investigation by implanting epicardial electrodes and an indwelling aortic catheter. The dogs were fasted overnight and initially anesthetized with halothane on the day of surgery. After tracheal intubation, anesthesia was maintained with isoflurane and oxygen via positive pressure ventilation to keep end tidal carbon dioxide within the normal range. Muscular relaxation was induced by pancuronium. A right thoracotomy was performed in the fifth intercostal space. Three bipolar electrode pairs were sutured to the epicardial surface of the right atrial appendage and on the right and left ventricular apex (FIG. 5). A bipolar electrode was sutured to the right atrium close to the anatomical region of the sinoatrial node. A bipolar plunge electrode was placed into base of the interventricular septum to record a His bundle electrogram. An indwelling arterial catheter was placed into the aorta through the left femoral artery after surgical exposure of the artery at the inner side of the hind limb. All electrode leads were subcutaneously tunneled and exited through the skin between the scapulae. Incisions were closed in anatomic fashion and standard postoperative methods of analgesia were provided with 0.015 mg/kg of buprenorphine (Buprenex®, Reckitt & Colman, Hull, UK) and two times of 25 mg/kg cefazolin (Cefazolin Sodium®, SoloPak Laboratories, Elk Groove Village, Ill.) and dogs were allowed to recover from surgery for a period of seven days prior to testing.
Electrical signals from the bipolar electrodes, after suitable amplification in a custom built preamplifier (gain 1000), were filtered in a separate custom designed and built common mode rejection amplifier with a bandpass filter of 10-1000 Hz and individually adjusted for signal strength (maximal gain 400). […] Right atrial appendage (RA), right ventricular apex (RVA) and His bundle electrograms (HB) were recorded, simultaneously. […] All measurements of conduction times were made during spontaneous sinus rhythm.
The His bundle electrode (HBE) was advanced into the base of the interatrial septum from the aortic root. The electrode was advanced from a point located just behind and to the right of the origin of the right coronary artery. The HBE was slowly advanced parallel to the aorta, inferiorly and slightly anteriorly until a well discernible His potential was recorded. AV conduction (AH) interval was measured as the time difference (ms) between the onset of the initial rapid deflection in the RA electrogram to the beginning of the His potential in the HB electrogram. His-ventricular (HV) conduction time interval (ms) was measured from the beginning of the His potential (HBE) to the initial deflection of the QRS complex wave (earliest left ventricular activation) in a simultaneously recorded surface ECG lead II.
As an indicator of automaticity, sinus node recovery time (SNRT) was determined by pacing the right atrial appendage (30 s at 180 and 200 beats/min at 2 msec pulse duration; 2×threshold). SNRT was measured from the last pacing spike to the first spontaneous atrial activity on the His bundle electrogram after cessation of pacing (ms).
A timed extrastimulus (S2) was delivered 300 ms after the preceding pacing spike (S1).
Verapamil was dissolved in 5% dextrose and water ([…]).
During the postoperative period, each dog was trained to stand quietly in a sling during electrophysiological monitoring. Prior to measurement, electrical signals in each dog were monitored to verify the absence of spontaneous arrhythmias other-than normal respiratory sinus arrhythmias.
From the resting dog, 5 channel records were obtained at a sampling rate of 1 kHz per channel for 7 min to determine the following conduction intervals: AH, HV, QRS, QT and HR. A corrected QT interval [QTc=QT interval in ms/ (R-R interval in s)^1/2 ] was also calculated.

[1] = tested on: isolated working rat heart; conditions: R 950 ng/ml
[2] = tested on: isolated working rat heart
[3] = tested on: isolated working rat heart; remark: listed apart in the source

Structure (SMILES): COc1ccc(CCN(C)CCC[C@](C#N)(c2ccc(OC)c(OC)c2)C(C)C)cc1OC [R-verapamil, reference compound]
- AH time (canine heart; 0.1 mg/kg i.v., 0 min): 88 ± 5 ms
- Heart rate (canine heart; 0.1 mg/kg i.v., 0 min): 103 ± 9 beats per min
- Mean arterial pressure (canine heart; 0.1 mg/kg i.v., 0 min): 94 ± 3 mmHg
- AH time (canine heart; 0.1 mg/kg i.v., 1 min): 94 ± 4 ms
- Heart rate (canine heart; 0.1 mg/kg i.v., 1 min): 95 ± 7 beats per min
- Mean arterial pressure (canine heart; 0.1 mg/kg i.v., 1 min): 95 ± 3 mmHg
- AH time (canine heart; 0.1 mg/kg i.v., 2 min): 93 ± 5 ms
- Heart rate (canine heart; 0.1 mg/kg i.v., 2 min): 98 ± 8 beats per min
- Mean arterial pressure (canine heart; 0.1 mg/kg i.v., 2 min): 95 ± 2 mmHg
- AH time (canine heart; 0.1 mg/kg i.v., 3 min): 93 ± 5 ms
- Heart rate (canine heart; 0.1 mg/kg i.v., 3 min): 93 ± 7 beats per min
- Mean arterial pressure (canine heart; 0.1 mg/kg i.v., 3 min): 95 ± 3 mmHg
- AH time (canine heart; 0.1 mg/kg i.v., 4 min): 95 ± 5 ms
- Heart rate (canine heart; 0.1 mg/kg i.v., 4 min): 91 ± 8 beats per min
- Mean arterial pressure (canine heart; 0.1 mg/kg i.v., 4 min): 95 ± 3 mmHg
- AH time (canine heart; 0.1 mg/kg i.v., 5 min): 95 ± 5 ms
- Heart rate (canine heart; 0.1 mg/kg i.v., 5 min): 92 ± 8 beats per min
- Mean arterial pressure (canine heart; 0.1 mg/kg i.v., 5 min): 95 ± 3 mmHg
- AH time (canine heart; 0.2 mg/kg i.v., 0 min): 93 ± 4 ms
- Heart rate (canine heart; 0.2 mg/kg i.v., 0 min): 106 ± 7 beats per min
- Mean arterial pressure (canine heart; 0.2 mg/kg i.v., 0 min): 90 ± 3 mmHg
- AH time (canine heart; 0.2 mg/kg i.v., 1 min): 99 ± 5 ms
- Heart rate (canine heart; 0.2 mg/kg i.v., 1 min): 104 ± 8 beats per min
- Mean arterial pressure (canine heart; 0.2 mg/kg i.v., 1 min): 97 ± 3 mmHg
- AH time (canine heart; 0.2 mg/kg i.v., 2 min): 97 ± 5 ms
- Heart rate (canine heart; 0.2 mg/kg i.v., 2 min): 99 ± 9 beats per min
- Mean arterial pressure (canine heart; 0.2 mg/kg i.v., 2 min): 97 ± 3 mmHg
- AH time (canine heart; 0.2 mg/kg i.v., 3 min): 98 ± 4 ms
- Heart rate (canine heart; 0.2 mg/kg i.v., 3 min): 102 ± 9 beats per min
- Mean arterial pressure (canine heart; 0.2 mg/kg i.v., 3 min): 94 ± 2 mmHg
- AH time (canine heart; 0.2 mg/kg i.v., 4 min): 98 ± 4 ms
- Heart rate (canine heart; 0.2 mg/kg i.v., 4 min): 96 ± 8 beats per min
- Mean arterial pressure (canine heart; 0.2 mg/kg i.v., 4 min): 96 ± 2 mmHg
- AH time (canine heart; 0.2 mg/kg i.v., 5 min): 99 ± 5 ms
- Heart rate (canine heart; 0.2 mg/kg i.v., 5 min): 95 ± 9 beats per min
- Mean arterial pressure (canine heart; 0.2 mg/kg i.v., 5 min): 92 ± 2 mmHg
- AH time (canine heart; 0.4 mg/kg i.v., 0 min): 97 ± 4 ms
- Heart rate (canine heart; 0.4 mg/kg i.v., 0 min): 123 ± 5 beats per min
- Mean arterial pressure (canine heart; 0.4 mg/kg i.v., 0 min): 86 ± 2 mmHg
- AH time (canine heart; 0.4 mg/kg i.v., 1 min): 106 ± 5 ms
- Heart rate (canine heart; 0.4 mg/kg i.v., 1 min): 108 ± 6 beats per min
- Mean arterial pressure (canine heart; 0.4 mg/kg i.v., 1 min): 94 ± 2 mmHg
- AH time (canine heart; 0.4 mg/kg i.v., 2 min): 106 ± 4 ms
- Heart rate (canine heart; 0.4 mg/kg i.v., 2 min): 109 ± 5 beats per min
- Mean arterial pressure (canine heart; 0.4 mg/kg i.v., 2 min): 98 ± 3 mmHg
- AH time (canine heart; 0.4 mg/kg i.v., 3 min): 104 ± 4 ms
- Heart rate (canine heart; 0.4 mg/kg i.v., 3 min): 106 ± 7 beats per min
- Mean arterial pressure (canine heart; 0.4 mg/kg i.v., 3 min): 97 ± 3 mmHg
- AH time (canine heart; 0.4 mg/kg i.v., 4 min): 104 ± 5 ms
- Heart rate (canine heart; 0.4 mg/kg i.v., 4 min): 108 ± 7 beats per min
- Mean arterial pressure (canine heart; 0.4 mg/kg i.v., 4 min): 99 ± 3 mmHg
- AH time (canine heart; 0.4 mg/kg i.v., 5 min): 105 ± 5 ms
- Heart rate (canine heart; 0.4 mg/kg i.v., 5 min): 111 ± 6 beats per min
- Mean arterial pressure (canine heart; 0.4 mg/kg i.v., 5 min): 98 ± 3 mmHg
- Interaction between MAP and HR (multiple linear regression), in words (canine heart; increase in HR against drop in MAP): least increase in heart rate measured against a drop in blood pressure
- Effect on peak systolic pressure (PSP), in words [1]: no apparent effect on PSP
- Nature of cardiac effect (inotropic / chronotropic) ([1]; S 100 ng/ml): primarily chronotropic
- Peak systolic pressure (PSP), significance vs predrug ([1]; S 100 ng/ml, R/S ratio 9.5): n.s.
- Peak systolic pressure (PSP), significance vs predrug ([2]; R alone, R1-R4 (50-950 ng/ml cumulative)): n.s.
- Cardiac output change, in words ([2]; R exceeding 200 ng/ml (R2)): Cardiac output appears to increase
- Cardiac output (CO), significance vs baseline ([3]; R1 (50 ng/ml)): n.s.
- Heart rate (HR), significance vs baseline ([3]; R1 (50 ng/ml)): n.s.
- Peak systolic pressure (PSP), significance vs baseline ([3]; R1 (50 ng/ml)): n.s.
- Cardiac output (CO), significance vs baseline ([3]; R2 (200 ng/ml)): n.s.
- Heart rate (HR), significance vs baseline ([3]; R2 (200 ng/ml)): n.s.
- Peak systolic pressure (PSP), significance vs baseline ([3]; R2 (200 ng/ml)): n.s.
- Cardiac output (CO), significance vs baseline ([3]; R3 (450 ng/ml)): n.s.
- Heart rate (HR), significance vs baseline ([3]; R3 (450 ng/ml)): n.s.
- Peak systolic pressure (PSP), significance vs baseline ([3]; R3 (450 ng/ml)): n.s.
- Peak systolic pressure (PSP), significance vs baseline ([3]; R4 (950 ng/ml)): n.s.
- Effect on peak systolic pressure (PSP), in words ([3]; increasing levels of R): remains unaffected by increasing levels of R

Source: patent US5955500A (G. D. Searle & Co., priority 1997, dated 1999)
